Measurements: US11071747B2, “Use of NAD precursors for breast enhancement” (UNIVERSITY OF IOWA RESEARCH FOUNDATION, priority 2016, dated 2021)
“Also recorded” adds a separate entry of the source.

Assays:
[1] = system: mammary glands of lactating mice; test: NR-supplemented diet in lactating female mice, mammary gland mass and Carmine/Alum staining; assay type: in vivo, C57BL/6N mice
Description: FIGS. 1A-B. NR increases the mass of mammary glands of lactating mice. C57BL/6 female mice were fed normal chow (NC) diet and mated to a C57BL/6 male. After gestation and birth, females remained on NC or were on or a diet supplemented with 3 g/kg nicotinamide riboside chloride (NR). At day 14, the females were sacrificed and mammary glands 1-5 were removed for analysis. FIG. 1A. […] FIG. 1B. Mammary glands 4 and 5 isolated from lactating females were stained with Carmine/Alum staining.
The data are based on a trial with female C57BL/6N mice raised in 12 hour light:dark cycles on Teklad 2920X chow (NC). It was asked whether addition of NR chloride (3 g/kg of chow) to the diet of female mice would augment mammary tissue. Accordingly, for 12 weeks prior to mating with a single C57BL/6N male, females were on either NC (n=4) or NC+NR (n=4). Females were maintained on the same diet for 14 days post-partum.

[2] = system: mammary glands of virgin female mice; test: NR oral supplementation in virgin female mice, mammary gland development; assay type: in vivo
Description: FIGS. 2A-E. NR oral supplementation promotes mammary gland development in virgin female mice (non-lactating females). FIG. 2A. […] FIG. 2B. Carmine/Alum staining of mammary glands. FIG. 2C. Quantification of mammary gland ductal length can be assessed by taking the measurement of the left (L1), right (L2), top (L3) and bottom (L4) branchings expressed in cm. FIG. 2D. […] FIG. 2E.

[3] = system: mammary gland #4-5 and brown adipose tissue of female rats; test: NR diet in virgin female rats, mammary gland and brown adipose tissue weight; assay type: in vivo; settings: NR diet vs normal chow
Description: FIGS. 3A-C. […] Adipose tissues of female rats on normal chow diet (NC) or normal chow with nicotinamide riboside (NR). FIG. 3A. Mammary gland #4-5 were isolated and the weight was recorded. […] FIG. 3B. Images of dissected mammary gland #4-5. FIG. 3C. Weight of brown adipose tissue (BAT). To determine if the effect of NR on females was a mouse-specific phenomenon, additional experiments were performed. Specifically, virgin female rats were fed either NC or NR diets prior to dissection.

mammary glands #4 and 5 = test: NR diet for six weeks in eight month-old female and male mice, mammary gland weight; assay type: in vivo; settings: NR diet six weeks vs NC
Description: FIG. 4. NR increases mammary gland tissue weight of female but not male mice. Eight month-old mice were put on NC or NR diet for six weeks. Mammary glands #4 and 5 were measured and plotted by normalizing to the body weight of each mouse. […] In FIG. 4, eight month-old mice were put on normal chow (NC) or NC+NR (NR) diets for six weeks. Mammary glands #4 and 5 were measured and plotted by normalizing to the body weight of each mouse.

[4] = system: mammary glands #4-5 of female mice; test: Xylene extraction of fat from stained mammary glands of NR-fed female mice; assay type: in vivo; settings: eight month-old female mice, NR diet six weeks
Description: FIGS. 5A-B. NR-supplemented mammary tissue is partially resistant to xylene extraction. FIG. 5A. […] Eight month-old female mice were on NC or NR diet for six weeks. Mammary glands #4-5 were isolated, fixed, stained with Carmine/Alum stain and xylene was use to extract fat. […] FIG. 5B. NR-fed rats have mammary gland with a different fat composition. […] Eight month-old female mice were on NC or NR diet for six weeks. Mammary glands #4-5 were isolated, fixed, stained with Carmine/Alum stain and subjected to an extraction with xylene to remove fat.

mammary gland of rats = test: Xylene clearing of mammary adipose tissue of NR-fed rats; assay type: in vivo
Description: FIGS. 5A-B. NR-supplemented mammary tissue is partially resistant to xylene extraction. FIG. 5A. […] Eight month-old female mice were on NC or NR diet for six weeks. Mammary glands #4-5 were isolated, fixed, stained with Carmine/Alum stain and xylene was use to extract fat. […] FIG. 5B. NR-fed rats have mammary gland with a different fat composition.

[5] = system: mammary glands of female rodents; test: NR-supplemented diet in adult female rodents, overall findings; assay type: in vivo, mice and rats
Description: As described herein, a series of experiments were performed to examine the effect of nicotinamide riboside (NR) on mammary tissue. It was determined that the provision of NR in the diet of female mice and female rats promoted mammary development (e.g., increases mammary gland tissue weight). […] These experiments show the unanticipated and potentially value effect of supplementing females with NR or other NAD precursors.

In the case of `NC(=O)c1ccc[n+]([C@@H]2O[C@H](CO)[C@@H](O)[C@H]2O)c1` [NR, nicotinamide riboside], the “mass of mammary glands” value ([1]; lactating C57BL/6 females, diet with 3 g/kg NR chloride vs normal chow, day 14 post-partum, mammary glands 1-5) was “more mammary tissue than those on normal chow; also recorded: more massive mammary glands”, the “lactating mammary tissue (Carmine/Alum staining)” value ([1]; lactating females, mammary glands 4 and 5, NR diet vs normal chow) was “more lactating mammary tissue” and the “mammary gland with beige fat” value ([2]; twelve week-old virgin female mice, NR supplementation for two weeks) was “more mammary gland with beige fat”. For the same compound, the “surface area of mammary gland #4-5” value ([2]; virgin female mice, NR oral supplementation) was “increases the surface area of mammary gland #4-5”, the “mammary gland ductal length measurements” value ([2]; virgin female mice, NR oral supplementation, L1-L4 branchings) was “increases ductal length measurements” and the “subcutaneous adipose tissue and epithelial duct branching” value ([2]; virgin mice, not exposed to males) was “significant increase of the subcutaneous adipose tissue and epithelial duct branching”. For the same compound, the “weight of brown adipose tissue (BAT)” value ([3]; female rats) was “increases the mass of mammary gland #4 and #5 and brown adipose tissue (BAT)”, the “weight of mammary gland #4-5” value ([3]; virgin female rats) was “increased the size of mammary tissues in rats; also recorded: more mammary gland tissue” and the “mammary gland #4 and 5 weight normalized to body weight” value (mammary glands #4 and 5; eight month-old female mice) was “more mammary gland tissue in comparison to the NC group”. The “mammary gland #4 and 5 weight normalized to body weight” value (mammary glands #4 and 5; eight month-old male mice) was “no significant increase in mammary tissue weight”, the “fat composition of the mammary gland” value [4] was “changes the fat composition of the mammary gland” and the “fat remaining in mammary glands after xylene extraction” value ([4]; 1 week of incubation in xylene) was “more fat remaining”. The “clearing of mammary adipose tissue by xylene” value (mammary gland of rats) was “poorly cleared by xylene”, the “development of beige or brown fat” value ([5]; NR supplementation, female rodents) was “leads to development of beige or brown fat” and the “fat pad formation, epithelial branching, alveolar and lobule development of mammary glands” value ([5]; adult females, virginal or pregnant, diet supplemented with NR) was “increase in fat pad formation, epithelial branching, alveolar and lobule development”.
